From patent US12221406B2, “Compounds as NLRP3 inflammasome inhibitors and compositions and uses thereof” (VIRGINIA COMMONWEALTH UNIVERSITY, priority 2019, dated 2025)

Tests used:
NLRC4 inflammasome = molecular target: T1, NLRC4 inflammasome (Mus musculus, UniProt Q3UP24); test: NLRC4 inflammasome assay in J774A.1 cells (LPS/flagellin, IL-1β ELISA); format: cell-based, murine; conditions: compound 10 μM
T1 construct: endogenous in cells; host or cells: J774A.1 murine macrophage cell line (LPS + transfected flagellin)
Method: (§1) J774A.1 cells were plated into a 96-well plate. […] Cells were treated with LPS (1 μg/mL) and test compounds for 1 h. Flagellin or poly-deoxyadenylic-deoxythymidylic acid sodium salt (Poly(dA:dT)) was used to induce the formation of the NLRC4 and the AIM2 inflammasomes.

AIM2 inflammasome = molecular target: T2, AIM2 inflammasome (Mus musculus, UniProt Q91VJ1); test: AIM2 inflammasome assay in J774A.1 cells (LPS/Poly(dA:dT), IL-1β ELISA); format: cell-based, murine; conditions: compound 10 μM
T2 construct: endogenous in cells; host or cells: J774A.1 murine macrophage cell line (LPS + Poly(dA:dT))
T2 sequence (Q91VJ1 1-354): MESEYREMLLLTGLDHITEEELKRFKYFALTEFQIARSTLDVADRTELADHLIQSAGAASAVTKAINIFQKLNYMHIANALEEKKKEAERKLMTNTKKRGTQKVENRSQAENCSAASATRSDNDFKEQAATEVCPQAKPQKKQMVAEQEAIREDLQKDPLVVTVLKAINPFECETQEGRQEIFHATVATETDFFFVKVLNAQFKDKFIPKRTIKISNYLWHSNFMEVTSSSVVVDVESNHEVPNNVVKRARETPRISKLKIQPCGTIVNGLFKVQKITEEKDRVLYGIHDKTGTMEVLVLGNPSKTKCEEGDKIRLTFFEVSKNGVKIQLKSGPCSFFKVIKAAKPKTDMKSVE
Method: as §1

EAE = EAE development in MOG-immunized mice; format: in vivo, C57BL/6 mice; conditions: from disease onset, to day 35
Text: C57BL/6 mice (n=10) were immunized subcutaneously in the dorsal flanks with MOG35-55 peptide emulsified in CFA on day 0. […] To assess the therapeutic effect in clinically relevant setting, treatment was started on disease onset (reduced tail tone, clinical score=1). Control mice received DMSO.

NLRP3 inflammasome = NLRP3 inflammasome (Mus musculus, UniProt Q8R4B8); test: IL-1β release from mouse peritoneal macrophages upon LPS/ATP challenge (ELISA); format: cell-based; set-up: endogenous in cells; host or cells: thioglycolate-elicited peritoneal macrophages from C57BL/6 mice
Method: Next, test compounds were added for 30 min. […] Primary peritoneal macrophages were similarly treated as described with J774A.1 cell line followed by ELISA analysis for IL-β production.
C57BL/6 mice were injected with 1 mL of 3% thioglycolate into the peritoneal cavity. Peritoneal cells were collected 3 days after injection by flushing the peritoneal cavity with cold PBS. The peritoneal cells were plated in complete RPMI1640 media containing 10% FBS, 100 U/mL penicillin, 100 μg/mL streptomycin. Floating cells were removed after 2 h and adherent peritoneal macrophages were used for experiments as described above.

hCMEC/D3 cells = test: Cytotoxicity on hCMEC/D3 cells (Live/Dead kit); format: cell-based, human; conditions: 20 μM, 2 h
[1] = In vivo BBB penetration in mice, plasma and brain by LC-MS/MS; set-up: species or system C57BL/6 mice; conditions: PO 20 mg/kg
Method: (§2) […]. […] […]. Plasma samples ([…]) were collected at 0.08, 0.17, 0.25, 0.5, 0.75, 1.0, 2.0, 4.0, 8.0, 12.0, and 24.0 h time points through orbital vein and were stored in −80° C. freezer for later analysis.
(§3) Samples were mixed by vortexing for 30 seconds. […] […]. […] […].

[2] = PK study in rats, IV and PO, plasma by LC-MS/MS; format: in vivo, Sprague-Dawley rats
Method: as §2, §3

Chain of NLRP3 inflammasome (Q8R4B8 whole entry): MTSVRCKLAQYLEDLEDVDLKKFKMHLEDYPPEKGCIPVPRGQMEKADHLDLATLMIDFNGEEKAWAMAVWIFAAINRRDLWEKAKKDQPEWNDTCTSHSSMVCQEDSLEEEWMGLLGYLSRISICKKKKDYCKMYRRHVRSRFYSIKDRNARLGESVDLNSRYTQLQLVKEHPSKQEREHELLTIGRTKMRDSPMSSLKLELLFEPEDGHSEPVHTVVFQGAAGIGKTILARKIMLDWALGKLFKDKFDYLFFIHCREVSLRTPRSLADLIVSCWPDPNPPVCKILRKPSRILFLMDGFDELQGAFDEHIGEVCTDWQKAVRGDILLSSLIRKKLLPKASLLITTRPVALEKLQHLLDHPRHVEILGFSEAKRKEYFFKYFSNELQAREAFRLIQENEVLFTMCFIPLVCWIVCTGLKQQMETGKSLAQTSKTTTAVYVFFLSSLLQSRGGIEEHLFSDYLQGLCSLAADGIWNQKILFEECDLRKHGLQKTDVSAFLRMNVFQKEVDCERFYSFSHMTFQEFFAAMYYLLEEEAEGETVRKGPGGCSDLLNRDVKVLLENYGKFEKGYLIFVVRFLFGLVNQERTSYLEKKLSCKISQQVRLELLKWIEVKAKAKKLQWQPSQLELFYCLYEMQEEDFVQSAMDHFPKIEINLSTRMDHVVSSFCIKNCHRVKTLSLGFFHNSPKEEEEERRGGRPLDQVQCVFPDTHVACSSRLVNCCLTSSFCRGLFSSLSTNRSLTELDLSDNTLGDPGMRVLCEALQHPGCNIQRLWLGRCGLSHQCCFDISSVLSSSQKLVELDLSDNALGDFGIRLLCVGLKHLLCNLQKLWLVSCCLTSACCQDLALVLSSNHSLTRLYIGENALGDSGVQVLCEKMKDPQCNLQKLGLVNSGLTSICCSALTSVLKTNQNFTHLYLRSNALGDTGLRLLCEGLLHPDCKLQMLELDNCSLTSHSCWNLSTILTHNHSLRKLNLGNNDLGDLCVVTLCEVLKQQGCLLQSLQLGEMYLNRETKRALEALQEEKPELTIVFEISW

SMILES | effect on IL-1β production by NLRC4 inflammasome (NLRC4 inflammasome) | effect on IL-1β production by AIM2 inflammasome (AIM2 inflammasome) | EAE induction (clinical score) (EAE; 2 mg/kg i.p.) | EAE induction (clinical score) (EAE; 10 mg/kg i.p.) | inhibitory activity in mouse peritoneal macrophages (NLRP3 inflammasome) | cytotoxicity on hCMEC/D3 cells (hCMEC/D3 cells) | plasma concentration ([1]; 0.5 hours) | brain concentration after approximate conversion ([1]; 4 h) | oral bioavailability (Foral) ([2]; 20 mg/kg PO vs IV) | steady-state volume of distribution (Vdss) ([2]; IV 20 mg/kg) | terminal plasma half-life (t½) ([2]; IV 20 mg/kg) | total clearance (CLtot) ([2]; IV 20 mg/kg) | cmax ([2]; PO 20 mg/kg) | tmax ([2]; PO 20 mg/kg)
C#CCNS(=O)(=O)c1ccc(CCN(Cc2cc(Cl)ccc2OC)C(=O)C=C)cc1 [HL16, N-(5-chloro-2-methoxybenzyl)-N-(4-(N-(prop-2-yn-1-yl)sulfamoyl)phenethyl)acryl-amide] | significantly inhibited | significantly inhibited | substantially blocked induction of EAE | substantially blocked induction of EAE | confirmed | – | – | – | – | – | – | – | – | –
C#CCNS(=O)(=O)c1ccc(CCN(Cc2cc(Cl)ccc2OCCC)C(=O)Cc2ccsc2)cc1 [SZ-N3I-45, N-(5-chloro-2-propoxybenzyl)-N-(4-(N-(prop-2-yn-1-yl)sulfamoyl)phenethyl)-2-(thio-phen-3-yl)acetamide] | did not significantly interfere | did not significantly interfere | – | – | – | did not show significant toxic effects | 277.33 ± 182.15 ng/mL | around 12 nM | 10% | 8.5 L/kg | 6.6 h | 41 mL/min/kg | 73 ng/mL | 12 h
